The record followed here is publication PMC7489219 (Molecular Brain, 2020).

Counter-ions that a name gives are not always drawn.

This experiment deals with T1, primary mouse cortical neurons.
T1 construct: primary cortical neurons, DIV 10
Briefly: cells. Further details: Protection from NMDA-induced (30 uM, 10 min) neuronal death; Hoechst nuclear morphology by automated microscopy. To be noted: Cortical neurone, 20 h, read-out: % inhibition, inhibition of NMDA-induced cell death (protection score), 30 min pre-treatment. The method, then:
On DIV 10, compounds were applied to the cells reaching an end concentration of 10 μM. Cells were incubated for 30 min at 37 °C, 5% CO2 before adding NMDA (30 μM). Cells were incubated for another 10 min in the incubator, then washed twice with defined minimal medium containing 10 μM of the respective compound and incubated for an additional 20 h before readout. Untreated (no NMDA) and NMDA-only stimulated wells were treated with 0.1% DMSO. […] After 15 min of incubation at room temperature, cells were washed twice with phosphate buffered saline. […] Dead neurons were identified by amorphous or shrunken nuclei using CellProfiler and CellProfiler Analyst software. For all cell death analyses the experimental unit (N) is defined as an independent experiment using an independent neuronal preparation. For each independent experiment, data from 3 replicate wells (i.e., from 36 images), representing an average of 3000 cells was analyzed per condition. The survival rate S was calculated by dividing the number of living cells by the total number of cells. The survival rate was then used to calculate the protection score according to Scompound−Svehicle/Suntreated−Svehicle×100=%protection , where ‘compound’ refers to compound + NMDA treatment, ‘vehicle’ refers to vehicle + NMDA treatment, and ‘untreated’ refers to DMSO control. […] As a proof of principle, we next used our assay to screen two commercially available drug libraries. In these screens, primary cortical cells were incubated with test compounds at 10 μM concentration for 30 min before addition of 30 μM NMDA. After 10 min NMDA treatment, cells were washed with fresh medium and kept in the presence of test compounds for 20 h until assessment of cell viability. […] This library covers structurally diverse drugs from several fields such as oncology, cardiology, immunology, and neurology/psychiatry.

For the compound `CC=CC1=C(C(=O)O)N2C(=O)[C@@H](NC(=O)[C@H](N)c3ccc(O)cc3)[C@H]2SC1` (mixture of isomers) [Cefprozil hydrate (Cefzil)], the inhibition at 10 µM stood at 0.674%.
The value for `CCC(C)n1ncn(-c2ccc(N3CCN(c4ccc(OC[C@H]5CO[C@](Cn6cncn6)(c6ccc(Cl)cc6Cl)O5)cc4)CC3)cc2)c1=O` (mixture of isomers) [Itraconazole (Sporanox)] was 2.19%; that for `C[N+](C)(C)CC(O)CC(=O)[O-]` (racemic) [DL-Carnitine hydrochloride] was 2.11%; that for `CC(C)n1c(/C=C/[C@H](O)C[C@H](O)CC(=O)O)c(-c2ccc(F)cc2)c2ccccc21` (racemic) [Fluvastatin sodium (Lescol)] was -2.48%.
For the compound `CC(=O)N1CCN(c2ccc(OC[C@@H]3CO[C@@](Cn4ccnc4)(c4ccc(Cl)cc4Cl)O3)cc2)CC1` (racemic) [Ketoconazole], the inhibition at 10 µM is -15.9%.
With `C[C@@H](NCCc1ccc(O)cc1)[C@@H](O)c1ccc(O)cc1` (racemic) [Ritodrine hydrochloride (Yutopar)] the figure was 3.89%.
With `COc1cc2c(cc1O)CC[C@@H]1[C@@H]2CC[C@]2(C)[C@@H](O)CC[C@@H]12` [2-Methoxyestradiol] the figure was 19.8%; with `O=C(O)CCCc1c[nH]c2ccccc12` [3-Indolebutyric acid (IBA)], -1.77%.
With `Cc1cc(=O)oc2cc(O)ccc12` [4-Methylumbelliferone (4-MU)] the figure was -0.113%; with `NCC(=O)CCC(=O)O` [5-Aminolevulinic acid hydrochloride], -1.27%; with `N[C@@H](Cc1c[nH]c2ccc(O)cc12)C(=O)O` [5-hydroxytryptophan (5-HTP)], -0.632%.
Take `CC(=O)C1=C(O)C=C2Oc3c(C(C)=O)c(O)c(C)c(O)c3[C@@]2(C)C1=O` [(+)-Usniacin (D-Usnic acid)]: the inhibition at 10 µM is -4.28%.
With `O=C(O[C@@H]1Cc2c(O)cc(O)cc2O[C@@H]1c1cc(O)c(O)c(O)c1)c1cc(O)c(O)c(O)c1` [(-)-Epigallocatechin gallate] the figure was 4.13%; with `C/C=C1\[C@H]2C=C(C)C[C@]1(N)c1ccc(=O)[nH]c1C2` [(-)-Huperzine A], -1.76%.
Consider `C[C@@H](NCCCc1cccc(C(F)(F)F)c1)c1cccc2ccccc12` [AMG-073 HCl (Cinacalcet hydrochloride)], for which the inhibition at 10 µM was -14.8%.
Take `Nc1ncnc2c1ncn2[C@@H]1O[C@H](COP(=O)(O)OP(=O)(O)OP(=O)(O)O)[C@@H](O)[C@H]1O` [ATP (Adenosine-Triphosphate)]: the inhibition at 10 µM is 0.248%.
On to `CC(=O)O[C@H]1CC[C@@]2(C)C(=CC[C@@H]3[C@@H]2CC[C@]2(C)C(c4cccnc4)=CC[C@@H]32)C1` [Abiraterone Acetate (CB7630)], for which the inhibition at 10 µM was -0.808%.
The value for `NC(=O)c1ncn([C@@H]2O[C@H](CO)[C@@H](O)[C@H]2O)c1N` [Acadesine] was 4.99%.
The value for `C[C@H]1O[C@H](O[C@H]2[C@H](O)[C@@H](O)[C@@H](O[C@@H]([C@H](O)[C@@H](O)C=O)[C@H](O)CO)O[C@@H]2CO)[C@H](O)[C@@H](O)[C@@H]1N[C@H]1C=C(CO)[C@@H](O)[C@H](O)[C@H]1O` [Acarbose] was 4.12%; that for `CC(=O)N[C@@H](CS)C(=O)O` [Acetylcysteine] was 29%.
Regarding `Cc1cnc(C(=O)O)c[n+]1[O-]` [Acipimox], the inhibition at 10 µM was -0.00389%.
With `Nc1nc2c(ncn2COCCO)c(=O)[nH]1` [Acyclovir (Aciclovir)] the figure was -1.44%; with `COc1ccc(-c2ccc3cc(C(=O)O)ccc3c2)cc1[C@]12C[C@H]3C[C@H](C[C@H](C3)C1)C2` [Adapalene], 63.6%; with `CC(C)(C)C(=O)OCOP(=O)(COCCn1cnc2c(N)ncnc21)OCOC(=O)C(C)(C)C` [Adefovir Dipivoxil (Preveon, Hepsera)], 18.8%.
With `Nc1ncnc2c1ncn2[C@@H]1O[C@H](CO)[C@@H](O)[C@H]1O` [Adenosine (Adenocard)] the figure was 15.3%.
As for `O=c1[nH]cc(F)c(=O)[nH]1` [Adrucil (Fluorouracil)], the inhibition at 10 µM was -16.3%.
With `COc1ccc2cccc(CCNC(C)=O)c2c1` [Agomelatine], the inhibition at 10 µM is -12.7%.
With `CCCSc1ccc2[nH]c(NC(=O)OC)nc2c1` [Albendazole (Albenza)] the figure was 28.3%; with `NCCCC(O)(P(=O)(O)O)P(=O)(O)O` [Alendronate (Fosamax)], 40.1%.
The value for `COc1cc2nc(N(C)CCCNC(=O)C3CCCO3)nc(N)c2cc1OC` (stereo not shown) [Alfuzosin hydrochloride (Uroxatral)] was -0.34%; that for `COCCCOc1cc(C[C@@H](C[C@H](N)[C@@H](O)C[C@H](C(=O)NCC(C)(C)C(N)=O)C(C)C)C(C)C)ccc1OC` [Aliskiren hemifumarate] was 30.5%; that for `Oc1ncnc2[nH]ncc12` [Allopurinol (Zyloprim)] was 19.8%.
Turning to `O=c1[nH]cnc2[nH]ncc12` [Allopurinol Sodium (Aloprim)], the inhibition at 10 µM was determined as 21.4%.
With `O=C1c2c(O)cccc2[C@H]([C@@H]2O[C@H](CO)[C@@H](O)[C@H](O)[C@H]2O)c2cc(CO)cc(O)c21` [Aloin (Barbaloin)] the figure was 0.91%; with `CN(C)c1nc(N(C)C)nc(N(C)C)n1` [Altretamine (Hexalen)], -3.75%; with `NC12CC3CC(CC(C3)C1)C2` [Amantadine hydrochloride (Symmetrel)], 1.41%.
With `CC(NC(C)(C)C)C(=O)c1cccc(Cl)c1` (stereo not shown) [Amfebutamone (Bupropion)], the inhibition at 10 µM was 2.08%.
The value for `N=C(N)NC(=O)c1nc(Cl)c(N)nc1N` [Amiloride hydrochloride (Midamor)] was -0.812%; that for `NCCCCCC(=O)O` [Aminocaproic acid (Amicar)] was 25.5%; that for `Cn1c(=O)c2[nH]cnc2n(C)c1=O` [Aminophylline (Truphylline)] was 12%.
The value for `CCOC(=O)C1=C(COCCN)NC(C)=C(C(=O)OC)C1c1ccccc1Cl` (stereo not shown) [Amlodipine besylate (Norvasc)] was -2.44%; that for `CCC(C)(C)c1ccc(CC(C)CN2C[C@@H](C)O[C@@H](C)C2)cc1` (stereo partly shown) [Amorolfine Hydrochloride] was -45.8%.
Consider `CC1(C)S[C@@H]2[C@H](NC(=O)[C@H](N)c3ccc(O)cc3)C(=O)N2[C@H]1C(=O)O` [Amoxicillin (Amox)], for which the inhibition at 10 µM was -1.15%.
Take `CC(C)(C#N)c1cc(Cn2cncn2)cc(C(C)(C)C#N)c1` [Anastrozole]: the inhibition at 10 µM was determined as 3.89%.
With `C=C1CC[C@@H]2[C@](C)(CO)[C@H](O)CC[C@@]2(C)[C@@H]1C/C=C1/C(=O)OC[C@H]1O` [Andrographolide] the figure was -4.01%; with `N#CC1(c2ccc(NC(=O)c3cccnc3NCc3ccncc3)cc2)CCCC1` [Apatinib (YN968D1)], -0.459%; with `O=c1cc(-c2ccc(O)cc2)oc2cc(O)cc(O)c12` [Apigenin], -0.752%.
In the case of `COc1cc(C(C)=O)ccc1O` [Apocynin (Acetovanillone)], the inhibition at 10 µM was -0.991%.
With `C[C@@H](O[C@H]1OCCN(Cc2n[nH]c(=O)[nH]2)[C@H]1c1ccc(F)cc1)c1cc(C(F)(F)F)cc(C(F)(F)F)c1` [Aprepitant (MK-0869)] the figure was 17.6%; with `OC[C@H]1O[C@@H](Oc2ccc(O)cc2)[C@H](O)[C@@H](O)[C@@H]1O` [Arbutin (Uva, p-Arbutin)], -0.469%.
With `CO[C@H]1O[C@@H]2O[C@@]3(C)CC[C@H]4[C@H](C)CC[C@@H]([C@H]1C)[C@@]24OO3` [Artemether (SM-224)] the figure was 1.03%; with `C[C@H]1[C@H](OC(=O)CCC(=O)O)O[C@@H]2O[C@@]3(C)CC[C@H]4[C@H](C)CC[C@@H]1[C@@]24OO3` [Artesunate], -3.35%.
Take `C[C@H]1[C@H](C)CC[C@]2(C(=O)O)CC[C@]3(C)C(=CC[C@@H]4[C@@]5(C)C[C@@H](O)[C@H](O)[C@@](C)(CO)[C@@H]5CC[C@]43C)[C@H]12` [Asiatic acid]: the inhibition at 10 µM was -2.44%.
`CC(C)(O)[C@H]1CC[C@@](C)([C@H]2[C@@H](O)C[C@@]3(C)[C@@H]4C[C@H](O[C@@H]5O[C@H](CO)[C@@H](O)[C@H](O)[C@H]5O)[C@H]5C(C)(C)[C@@H](O[C@@H]6OC[C@@H](O)[C@H](O)[C@H]6O)CC[C@@]56C[C@@]46CC[C@]23C)O1` [Astragaloside A]: the inhibition at 10 µM was 0.89%.
With `COC(=O)N[C@H](C(=O)N[C@@H](Cc1ccccc1)[C@@H](O)CN(Cc1ccc(-c2ccccn2)cc1)NC(=O)[C@@H](NC(=O)OC)C(C)(C)C)C(C)(C)C` [Atazanavir sulfate] the figure was 2.12%.

Usually inhibition stands for the change of the read-out against control, counted positive when it falls.
